This passage reports IC50 results from BindingDB's records for doi:10.1021/jm00061a022 (Merck Research Laboratories, 1993).

Assay in all cases: HIV-1 RT Assay
Holding throughout (conditions): pH 8.2

The target in assay [1] is Gag-Pol polyprotein [588-1027]/[588-1147] (Human immunodeficiency virus 1, UniProt P04585).
The target of assay [2] is Gag-Pol polyprotein [588-1027,K690N]/[588-1147,K690N] (Human immunodeficiency virus 1, UniProt P04585, K690N).
Assay [3] addresses Gag-Pol polyprotein [588-1127,Y768C]/[588-1147,Y768C] (Human immunodeficiency virus 1, UniProt P04585, Y768C).

Molecules are shown by their SMILES.

Take `COC(=O)c1[nH]c2ccccc2c1Sc1ccccc1` [methyl 3-(phenylsulfanyl)-1H-indole-2-carboxylate]: in assay [1], the IC50 was determined as 2500 nM.
`[O-][S+](Cc1[nH]c2ccccc2c1Sc1ccccc1)c1ccccc1` (configuration not stated) [2-[(benzenesulfinyl)methyl]-3-(phenylsulfanyl)-1H-indole]: the IC50 in assay [2] amounted to 2570 nM; in assay [3], 2990 nM; in assay [1], 63 nM.
For `NC(=O)c1[nH]c2ccc(Cl)cc2c1Sc1ccccc1` [5-chloro-3-(phenylsulfanyl)-1H-indole-2-carboxamide] the same measures were 1460 nM, 1040 nM and 14 nM.
Compound `CNC(=O)c1[nH]c2ccccc2c1Sc1ccccc1` [N-methyl-3-(phenylsulfanyl)-1H-indole-2-carboxamide] displayed an IC50 in assay [1] of 746 nM.
On the same count and under the same terms, under `CNC(=O)c1[nH]c2ccc(Cl)cc2c1Sc1ccccc1` [5-chloro-N-methyl-3-(phenylsulfanyl)-1H-indole-2-carboxamide] stands 22 nM; under `CN(C)C(=O)c1[nH]c2ccccc2c1Sc1ccccc1` [N,N-dimethyl-3-(phenylsulfanyl)-1H-indole-2-carboxamide], 87600 nM.
Take `NC(=O)c1[nH]c2ccc(Cl)cc2c1S(=O)(=O)c1ccccc1` [5Cl3PhSO2-2IndolCONH2]: the IC50 in assay [2] came to 116 nM; in assay [3] it was 71 nM; in assay [1], 3 nM.
In the same order, the values of `NC(=O)c1[nH]c2ccc(Cl)cc2c1[S+]([O-])c1ccccc1` (configuration not stated) [3-(benzenesulfinyl)-5-chloro-1H-indole-2-carboxamide] are 2760 nM, 1390 nM and 23 nM.
For the compound `COC(=O)c1[nH]c2ccc(Cl)cc2c1Sc1ccccc1` [methyl 5-chloro-3-(phenylsulfanyl)-1H-indole-2-carboxylate], half-maximal inhibition in assay [1] (IC50) was put at 156 nM.
Consider `CC(C)=CCN1Cc2cc(Cl)cc3[nH]c(=S)n(c23)C[C@@H]1C` [(11S)-6-chloro-11-methyl-10-(3-methylbut-2-en-1-yl)-1,3,10-triazatricyclo[6.4.1.0^{4,13}]trideca-4,6,8(13)-triene-2-thione], for which the IC50 in assay [2] was found to be 7320 nM; in assay [3], 39500 nM; in assay [1], 311 nM.
In assay [1], `[O-][S+](Cc1[nH]c2ccc(Cl)cc2c1Sc1ccccc1)c1ccccc1` (configuration not stated) [2-[(benzenesulfinyl)methyl]-5-chloro-3-(phenylsulfanyl)-1H-indole] yielded an IC50 of 112 nM.
Same read-out and setting: under `[O-][S+](Cc1[nH]c2ccccc2c1[S+]([O-])c1ccccc1)c1ccccc1` (configuration not stated) [3-(benzenesulfinyl)-2-[(benzenesulfinyl)methyl]-1H-indole] stands 72800 nM.
